Measured values from the supplement of paper PMC10307832.

Columns and labels:
Experiment in all cases: relative viability (nuclei count vs DMSO), 5 days (fraction); higher = more cells survive
[1] = compound: O[C@H]1CC[C@H](Nc2ncc3nc(Nc4c(F)cc(F)cc4F)n([C@H]4CCOC4)c3n2)CC1 [Tanzisertib] + CC(C)C[C@H](NC(=O)[C@H](Cc1ccccc1)NC(=O)c1cnccn1)B(O)O [Bortezomib] (partner 0.002 µM)
Method in brief: (§1)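 Dosing by pin tool came one day after lung cancer cell lines were seeded in 1536-well plates, using either one drug or a fixed anchor-drug dose plus five library-drug doses (not always all listed) in √10 steps. After 5 days, nuclei were counted on 4× images. Relative viability is treated-well nuclei count divided by vehicle-well nuclei count, and values are medians of duplicate plates.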

[2] = compound: C[C@@H](N)c1ccc(C(=O)Nc2ccnc3[nH]ccc23)cc1 + Nc1ncn([C@H]2C[C@H](O)[C@@H](CO)O2)c(=O)n1 [Decitabine] (partner 2 µM)
Method in brief: as §1

[3] = compound: C1CNCCC1C2=CC(=NN2)C3=CC=NC=C3 + CCNC(=O)c1noc(-c2cc(C(C)C)c(O)cc2O)c1-c1ccc(CN2CCOCC2)cc1 [Luminespib] (partner 0.01 µM)
Method in brief: as §1

[4] = compound: C[C@@H](N)c1ccc(C(=O)Nc2ccnc3[nH]ccc23)cc1 + O=C(CCCCCCC(=O)Nc1ccccc1)NO [Vorinostat] (partner 1 µM)
Method in brief: as §1

Cell Line	relative viability ([1]; first compound 0.08 µM)	relative viability ([1]; first compound 0.253 µM)	relative viability ([1]; first compound 0.8 µM)	relative viability ([1]; first compound 2.53 µM)	relative viability ([1]; first compound 8 µM)	relative viability ([2]; first compound 0.04 µM)	relative viability ([2]; first compound 0.1265 µM)	relative viability ([2]; first compound 0.4 µM)	relative viability ([2]; first compound 1.265 µM)	relative viability ([2]; first compound 4 µM)	relative viability ([3]; first compound 0.08 µM)	relative viability ([3]; first compound 0.8 µM)	relative viability ([3]; first compound 2.53 µM)	relative viability ([3]; first compound 8 µM)	relative viability ([4]; first compound 0.04 µM)	relative viability ([4]; first compound 0.1265 µM)	relative viability ([4]; first compound 0.4 µM)	relative viability ([4]; first compound 1.265 µM)	relative viability ([4]; first compound 4 µM)
201T	1.08	1.17	1.1	1.12	1.08	0.846	0.853	0.851	0.979	0.941	1.03	1.04	1.13	1.01	0.909	0.886	0.981	0.891	1.24
A549	–	–	–	–	–	0.343	0.254	0.374	0.316	0.286	–	–	–	–	–	–	–	–	–
A-427	1.09	0.938	1.01	0.96	0.927	0.499	0.564	0.549	0.517	0.545	0.789	1.2	0.908	0.92	0.77	0.851	0.81	0.746	0.772
ABC-1	0.292	0.346	0.268	0.356	0.228	1.2	0.895	1.13	1.46	1.46	0.517	0.69	1.02	0.663	1.23	1.11	1.01	0.998	0.941
BEN	0.944	0.954	0.781	0.85	0.729	0.53	0.732	0.822	0.757	0.568	0.215	0.282	0.341	0.344	0.592	0.573	0.589	0.585	0.587
CAL-12T	1.04	1.2	1.18	1.01	0.825	–	–	–	–	–	0.606	0.734	0.457	0.819	0.863	0.771	0.914	0.876	0.897
COR-L23	1.13	0.982	0.975	1.11	1.04	0.385	0.441	0.421	0.393	0.305	0.481	0.838	0.64	0.671	0.51	0.486	0.479	0.417	0.212
COR-L 105	0.818	0.708	0.99	0.877	0.482	0.651	0.674	0.627	0.495	0.526	0.688	0.648	0.921	0.962	1.04	0.793	0.998	0.76	0.544
Calu-6	1.02	0.993	1.03	1.06	1.05	–	–	–	–	–	–	–	–	–	–	–	–	–	–
ChaGo-K-1	0.915	1.21	1.07	0.934	0.916	0.569	0.526	0.548	0.529	0.456	0.512	0.555	0.709	0.568	0.702	0.751	0.743	0.555	0.676
EBC-1	0.638	0.609	0.503	0.632	0.374	–	–	–	–	–	–	–	–	–	–	–	–	–	–
EKVX	1.1	0.996	1.02	0.965	0.683	0.385	0.331	0.358	0.329	0.385	0.855	0.609	0.987	0.8	0.672	0.672	0.83	0.44	0.517
EMC-BAC-2	1.19	1.14	1.13	1.05	1.06	1	0.968	1.11	1.04	0.903	0.882	1.16	1.28	1.14	0.314	0.526	0.427	0.341	0.395
EPLC-272H	1.04	0.949	0.876	0.943	1.04	0.461	0.41	0.481	–	0.492	0.281	0.22	0.406	0.206	0.548	0.567	0.497	0.352	0.351
H3255	0.829	0.796	0.819	0.845	0.427	0.603	0.747	0.67	0.67	0.481	0.755	0.955	1.15	1.08	0.89	0.816	0.886	0.655	0.715
HARA	1.22	1.16	1.18	1.17	1.18	0.54	0.672	0.52	0.611	0.401	0.647	0.72	0.793	0.687	0.521	0.646	0.604	0.403	0.26
